Data: PMC7351026, “Serum Half-Lives for Short- and Long-Chain Perfluoroalkyl Acids after Ceasing Exposure from Drinking Water Contaminated by Firefighting Foam” (Environmental Health Perspectives, 2020)
Where two headings read alike, the source gives them in different places.

Assays:
[1] = PFAS levels in serum samples of airport employees (LC/MS/MS); settings: all the serum samples, although elevated in the drinking water
Description: All 26 employees at the airport were invited for a blood sampling between 11 and 14 September 2018 (i.e., within 11 to 14 d after the termination of contaminated drinking-water exposure). Information on age, home address, employment history, working tasks, and sick leave and vacation days in August and September were collected by questionnaire. In addition, data on the number of glasses of water consumed per day, local fish consumption, and history of blood donation and medication were collected. For female employees, questions about menstruation, pregnancy, and duration of breast-feeding were asked.
The PFAS analysis in serum from the first sampling was immediately performed and personal results were reported to the employees. […] These 17 employees submitted four rounds of blood and first morning urine samples in parallel, at 1-month intervals. In total, there were five rounds of serum sampling (started from September) and four rounds of urine sampling (from October). For modeling of elimination, all samples were reanalyzed in a single batch. We obtained 83 serum samples with a median count of 5 (range: 4–5) samples per employee, and 59 urine samples with median of 4 (range: 1–4) samples per employee. Only one employee provided a single urine sample. The study was approved by the Regional Ethical Review Board in Lund, Sweden. All employees provided written informed consent.
Venous whole blood samples were obtained and were centrifuged for 10 min at 1,500×g at room temperature to isolate the serum on site. The serum samples were collected in 6-mL BD Vacutainer® Plus plastic serum tubes without gel (BD). Urine samples were collected in 13-mL polypropylene screw cap tubes (Sarstedt). Serum and urine samples were frozen at −20°C after sampling and transported to Lund using cold chain logistics. Serum and urine samples were stored at −80°C and −20°C , respectively, before analysis.
The serum samples, QC samples, and chemical blanks were prepared in 96-well plates with 1.5-mL flat-bottom glass vials (Biotech solutions). Serum samples were thawed for 1–2 h and mixed on a vortex shaker for approximately 10 s two times. Once after all samples were thawed and a second time before pipetting the serum to the plate. Before pipetting, the tip was pre-wetted several times, drawing a volume into the tip and dispensing it back into the tube. Sample preparation procedures for serum samples consisted of 25μL serum mixed with 25μL water, 25μL methanol, 25μL isotopically labeled internal standards in 50% acetonitrile (see Table S1), and 100μL acetonitrile. Thereafter, samples were mixed vigorous by shaking for 30 min and centrifuged at 2,600×g for 10 min at room temperature. The supernatant ( 0.2mL ) was transferred to 96-well plates with 0.5-mL conical glass vials (MicroLiter Analytical Supplies) and again centrifuged at 3,000×g for 10 min before analysis. The QC samples and chemical blanks were prepared following the same procedure as the serum samples. The calibration standards were prepared in FBS the same way as the samples, except for the addition of diluted reference standards of all analyzed compounds in 25μL of the methanol solution.
Aliquots of 4μL of the sample were analyzed using LC/MS/MS. For the analysis, a C18 column ( 4μm , 2.1mm i.d.×50mm , Genesis Lightning) was used prior to the injector to filter the mobile phases. The analytical column was an Aquity BEH ( 1.7μm , 2.1mm i.d.×100mm Waters). The mobile phases (A and B) were A: 5 mM ammonium acetate in water:methanol (50:50); and B: methanol. The mobile phase was kept at 0% B for 2.5 min after injection. A gradient was then applied over 11 min to 90% B, where it was then kept for 1.5 min. The column was then conditioned at 0% B for 2 min.

[2] = general Swedish population (Ronneby, 106 Swedes) with high exposure through drinking water, 2 y follow-up from 6 months after clean water; ref Li et al. 2018; cited from earlier work
[3] = Population average serum elimination rate and half-life (linear mixed model, one compartment, first-order)
Procedure: Serum PFAS concentrations were log-transformed. Time was calculated as the elapsed days between supply of clean bottled water and […] blood sampling. We assumed one compartment, first-order elimination kinetics. In this kinetic model, the body is considered as one homogeneous volume in which mixing is instantaneous and from which PFAS could be absorbed, transferred, and eliminated according to the rate of elimination that is proportional to the concentration of PFAS in the body. Two methods were used to estimate serum elimination rate constant (k) and half-life for each PFAS:
Briefly, in the linear mixed model In Cij=αi+tijβ+Xiβ′+εij, Cij is the serum concentration of PFAS for individual i at sampling round j; αi is the subject-specific intercept (random intercept); tij is the time; β is the average slope; Xi is a vector of fixed covariates for individual i; β′ stands for the fixed effect coefficients; and εij is the random error term. We modified the model by excluding the subject-specific slope (random slope) due to a failure to converge after inclusion, which may be due to the limited number of study subjects. The negative value of the average slope ( −β ) is the population average k, and average half-life is calculated as ln2/k .
In the linear mixed model, we included only age and sex as covariates. We based covariate selection on factors that could conceivably confound the PFAS half-life estimation. Working task, duration of employment, number of glasses of water per day, blood donation, and pregnancy before mitigation of PFAS exposure from drinking water can influence the initial serum levels but would not be expected to influence the PFAS half-life.
A sensitivity analysis was performed using the same linear mixed model but with Cij as the serum levels after subtracting general background levels (using the median levels obtained from the nonexposed reference population). If the serum PFAS levels after subtraction were lower than the half of the background levels, they were replaced with half of the background levels.

[4] = Urine/serum ratio in paired samples; assay type: in vivo, human; settings: mean of four paired samplings per subject, 17 airport employees
Procedure: Urinary PFAS concentrations were specific-gravity adjusted. The ratio of urine and serum concentration for each PFAS (urine/serum ratio) at each sampling was calculated based on PFAS concentrations in paired serum and urine samples from 17 employees. Then the personal average urine/serum ratio was calculated using the mean value of repeated samplings for each employee.

[5] = set-up: method as in Zhang et al. 2015; settings: ref Zhang et al. 2015, cited from earlier work

O=C(O)C(F)(F)C(F)(F)C(F)(F)C(F)(F)F [PFPeA, perfluoropentanoic acid]
Level in serum samples [1]: below LOD

O=S(=O)(O)C(F)(F)C(F)(F)C(F)(F)C(F)(F)C(F)(F)C(F)(F)C(F)(F)C(F)(F)F [PFOS, perfluorooctane sulfonic acid]
Average half-life [2]: 3.4 y
Average half-life longer than that of the PFCA with same number of carbon atoms ([3]; PFHpS vs PFHpA, PFOS vs PFOA): ~1.2 y
Average serum half-life ([3]; population average, linear mixed model with original serum levels, 17 airport employees after end of drinking-water exposure): 2.9 y
Personal average urine/serum ratio, median (range) [4]: 0.00092
Urine/serum ratio ([5]; nonpregnant women): 0.013
Urine/serum ratio ([5]; pregnant women): 0.0004
